These results are taken from patent publication US20210309619A1, “ISOXAZOLIN-5-ONE DERIVATIVES AND HERBICIDES CONTAINING THE SAME AS ACTIVE INGREDIENTS” (HOKKO CHEMICAL INDUSTRY CO., LTD., priority 2018, published 2021).

Common to all, as to format: in vivo
Assay [1] relates to Chenopodium album. Put plainly: Herbicidal effect test by treatment of dry field farming soil (Test Example 3). The following applies: 120 g/10 a, sprayed one day after seeding, 14 days after treatment. The source says:
(§1) Herbicidal Rate (%)={1−(Average Dry Weight (g) of Plant of Treated Area)/(Average Dry Weight (g) of Plant of Untreated Area)}×100 [Math. 1] Pots with a size of 36 cm^2 were filled with a dry field farming soil (alluvium). The soil of the top layer of 1 cm and seeds of weeds, namely southern crabgrass, Echinochloa crus-galli, Chenopodium album and Amaranthus viridis, 20 seeds each, were evenly mixed, and the top layer was gently pressed. Emulsions prepared using the compounds in Table 5 below according to Formulation Example 5 were diluted with water one day after seeding, and the water-diluted agent solutions were sprayed to the soil surfaces at a ratio of 100 liters per 10 ares. A converted amount of the applied active ingredient corresponded to 120 g per 10 ares. The herbicidal effects were evaluated by the same standard as that in Test Example 1, 14 days after the treatment with the agents. In this regard, the compound numbers in Table 5 are the same as those in Table 1 and Table 2 above.

The test system of assay [2] is Amaranthus viridis. Described as above. The following applies: 120 g/10 a, sprayed one day after seeding, 14 days after treatment.
Description: as §1

Assay [3] has as its system Echinochloa crus-galli. Described as above. The following applies: 120 g/10 a, sprayed one day after seeding, 14 days after treatment.
Description: as §1

The subject of assay [4] is southern crabgrass. The assay is described as above. The following applies: 120 g/10 a, sprayed one day after seeding, 14 days after treatment.
Description: as §1

Assay [5] concerns Lindernia pyxidaria. Put plainly: Herbicidal effect test by treatment during growing period in paddy rice cultivation (Test Example 2). The following applies: 120 g/10 a, treated seven days after seeding, 14 days after treatment. The source says: (§2) Herbicidal Rate (%)={1−(Average Dry Weight (g) of Plant of Treated Area)/(Average Dry Weight (g) of Plant of Untreated Area)}×100 [Math. 1]
(§3) Wagner pots with an area of 1/10000 ares were filled with a paddy soil, and a compound fertilizer (N:P:K=17:17:17) was mixed after addition of water, followed by soil puddling. Then, Echinochloa crus-galli, broad leaf weeds (Lindernia pyxidaria and Monochoria vaginalis) and Scirpus juncoides, 30 seeds each, were sown in a depth of 0 to 1 cm. Water was poured immediately after seeding, and the water depth was kept at about 3 cm. A subsequent management was conducted in a glass greenhouse. Emulsions prepared using the compounds in Table 4 below according to Formulation Example 5 were diluted with water seven days after seeding, and a certain amount of the water-diluted agent solutions were dropped. A converted amount of the applied active ingredient corresponded to 120 g per 10 ares. The test was conducted in a double system per one agent solution concentration area, and the herbicidal rates (%) were determined by the equation (Math. 1) 14 days after the treatment with the agents. In this regard, the compound numbers in Table 4 are the same as those in Table 1 and Table 2 above.

The subject of assay [6] is Scirpus juncoides. The description is as above. The following applies: 120 g/10 a, treated seven days after seeding, 14 days after treatment.
Description: as §2, §3

Assay [7] has as its system Monochoria vaginalis. Described as above. The following applies: 120 g/10 a, treated seven days after seeding, 14 days after treatment.
Description: as §2, §3

In assay [8] the test system is Echinochloa crus-galli. Described as above. The following applies: 120 g/10 a, treated seven days after seeding, 14 days after treatment.
Description: as §2, §3

The test system of assay [9] is Lindernia pyxidaria. Briefly: Herbicidal effect test by treatment of rice paddy soil (Test Example 1). The following applies: 120 g/10 a, treated immediately after seeding, 14 days after treatment. As to the method:
(§4) Wagner pots with an area of 1/10000 ares were filled with a paddy soil, and a compound fertilizer (N:P:K=17:17:17) was mixed after water was added, followed by soil puddling. Then, Echinochloa crus-galli, broad leaf weeds (Lindernia pyxidaria and Monochoria vaginalis) and Scirpus juncoides, 30 seeds each, were sown in a depth of 0 to 1 cm. Water was poured immediately after seeding, and the water depth was kept at about 3 cm. A subsequent management was conducted in a glass greenhouse. Immediately after that, emulsions prepared using the compounds in Table 3 below according to Formulation Example 5 were diluted with water, and a certain amount of the water-diluted agent solutions were dropped. A converted amount of the applied active ingredient corresponded to 120 g per 10 ares.
(§5) This test was conducted in a double system per one agent solution concentration area, and the herbicidal rates (%) were determined by the following equation (Math. 1) 14 days after the treatment with the agents.
as §2

Assay [10] deals with Scirpus juncoides. The assay is described as above. The following applies: 120 g/10 a, treated immediately after seeding, 14 days after treatment. As to the method:
as §4, §5, §2

Assay [11] relates to Monochoria vaginalis. The assay is described as above. The following applies: 120 g/10 a, treated immediately after seeding, 14 days after treatment. As to the method:
as §4, §5, §2

For assay [12], the system named is Echinochloa crus-galli. Described as above. The following applies: 120 g/10 a, treated immediately after seeding, 14 days after treatment. As to the method:
as §4, §5, §2

The test system of assay [13] is Chenopodium album. Put plainly: Herbicidal effect test by treatment of stem and leaf in dry field farming (Test Example 4). The following applies: 120 g/10 a, stem and leaf treatment seven days after seeding, 14 days after treatment.
Description: as §1, with “Table 6” for “Table 5”, “water seven days” for “water one day”

In assay [14] the test system is Amaranthus viridis. The assay is described as above. The following applies: 120 g/10 a, stem and leaf treatment seven days after seeding, 14 days after treatment.
Description: as §1, with “Table 6” for “Table 5”, “water seven days” for “water one day”

In assay [15] the test system is Echinochloa crus-galli. Described as above. The following applies: 120 g/10 a, stem and leaf treatment seven days after seeding, 14 days after treatment.
Description: as §1, with “Table 6” for “Table 5”, “water seven days” for “water one day”

For assay [16], the system named is southern crabgrass. Described as above. The following applies: 120 g/10 a, stem and leaf treatment seven days after seeding, 14 days after treatment.
Description: as §1, with “Table 6” for “Table 5”, “water seven days” for “water one day”

Structures are written as SMILES.

Regarding `COC1CCCCC1n1oc(=O)c(Cc2ccccc2N(C(=O)OCC(C)C)S(=O)(=O)C(F)(F)F)c1C` (stereo not shown) [Compound 250], the “Herbicidal rate, Chenopodium album” value stood at 60% with Chenopodium album [1] and 90% with Chenopodium album [13]. Further, the “Herbicidal rate, Amaranthus viridis” value in the assay with Amaranthus viridis [2] and in the assay with Amaranthus viridis [14] was 90% throughout. In addition, the “Herbicidal rate, Echinochloa crus-galli” value was 90% with Echinochloa crus-galli [3], 100% with Echinochloa crus-galli [8], 100% in the assay on Echinochloa crus-galli [12] and 90% in the assay on Echinochloa crus-galli [15]. Besides, the “Herbicidal rate, southern crabgrass” value in the assay with southern crabgrass [4] and in the assay on southern crabgrass [16] was 90% each time. The entries for the “Herbicidal rate, Lindernia pyxidaria” value with Lindernia pyxidaria [5] and with Lindernia pyxidaria [9] were 90% and 100%, respectively. Besides, the results for the “Herbicidal rate, Scirpus juncoides” value in the assay on Scirpus juncoides [6] and in the assay with Scirpus juncoides [10] were 90% and 100%, respectively. The “Herbicidal rate, Monochoria vaginalis” value in the assay with Monochoria vaginalis [7] is on record as 90%; with Monochoria vaginalis [11], 100%.
Consider `COC1CCCC1n1oc(=O)c(Cc2ccccc2N(C(=O)Oc2ccccc2)S(=O)(=O)C(F)(F)F)c1C` (stereo not shown) [Compound 286], for which the figures for the “Herbicidal rate, Chenopodium album” value with Chenopodium album [1] and in the assay on Chenopodium album [13] were 60% and 90%, respectively. Also, the “Herbicidal rate, Amaranthus viridis” value with Amaranthus viridis [2] was found to be 60%; in the assay on Amaranthus viridis [14] it was 90%. For the same compound, the “Herbicidal rate, Echinochloa crus-galli” value in the assay on Echinochloa crus-galli [3] amounted to 90%; in the assay with Echinochloa crus-galli [8], 100%; with Echinochloa crus-galli [12] it was 100%; in the assay on Echinochloa crus-galli [15], 90%. Moreover, the “Herbicidal rate, southern crabgrass” value came to 90% with southern crabgrass [4] and 80% with southern crabgrass [16]. Also, the results for the “Herbicidal rate, Lindernia pyxidaria” value with Lindernia pyxidaria [5] and in the assay on Lindernia pyxidaria [9] were 80% and 100%, respectively. The “Herbicidal rate, Scirpus juncoides” value is reported as 90% in the assay on Scirpus juncoides [6] and 100% in the assay on Scirpus juncoides [10]. The “Herbicidal rate, Monochoria vaginalis” value with Monochoria vaginalis [7] is 90%; in the assay with Monochoria vaginalis [11], 100%.
`COC1CCCC1n1oc(=O)c(Cc2ccccc2N(S(=O)(=O)C(F)(F)F)S(=O)(=O)C(F)(F)F)c1C` (stereo not shown) [Compound 349, 1,1,1-trifluoro-N-[2-[[(2-methoxycyclopentyl)-3-methyl-5-oxoisoxazol-4-yl]methyl]phenyl]-N-(trifluoromethylsulfonyl)methanesulfonamide]: the “Herbicidal rate, Chenopodium album” value was determined as 60% in the assay with Chenopodium album [1] and 80% with Chenopodium album [13]. Also, the “Herbicidal rate, Amaranthus viridis” value is on record as 90% with Amaranthus viridis [2] and 80% in the assay on Amaranthus viridis [14]. Moreover, the “Herbicidal rate, Echinochloa crus-galli” value turned out to be 90% in the assay with Echinochloa crus-galli [3], 100% in the assay on Echinochloa crus-galli [8], 100% in the assay with Echinochloa crus-galli [12] and 90% in the assay on Echinochloa crus-galli [15]. In addition, the “Herbicidal rate, southern crabgrass” value with southern crabgrass [4] worked out at 90%; in the assay with southern crabgrass [16] it was 80%. Besides, the “Herbicidal rate, Lindernia pyxidaria” value was determined as 80% with Lindernia pyxidaria [5] and 100% in the assay with Lindernia pyxidaria [9]. Besides, the “Herbicidal rate, Scirpus juncoides” value in the assay on Scirpus juncoides [6] and in the assay on Scirpus juncoides [10] was 90% in each case. The “Herbicidal rate, Monochoria vaginalis” value with Monochoria vaginalis [7] stood at 80%; with Monochoria vaginalis [11], 100%.
In the case of `COC1CCCCC1n1oc(=O)c(Cc2ccccc2N(S(=O)(=O)C(F)(F)F)S(=O)(=O)C(F)(F)F)c1C` (stereo not shown) [Compound 351, 1,1,1-trifluoro-N-[2-[[(2-methoxycyclohexyl)-3-methyl-5-oxoisoxazol-4-yl]methyl]phenyl]-N-(trifluoromethylsulfonyl)methanesulfonamide], the “Herbicidal rate, Chenopodium album” value in the assay with Chenopodium album [1] is given as 60%; in the assay with Chenopodium album [13], 80%. For the same compound, the “Herbicidal rate, Amaranthus viridis” value in the assay with Amaranthus viridis [2] is 90%; in the assay on Amaranthus viridis [14], 80%. For the same compound, the “Herbicidal rate, Echinochloa crus-galli” value in the assay on Echinochloa crus-galli [3] stood at 90%; in the assay with Echinochloa crus-galli [8], 100%; in the assay with Echinochloa crus-galli [12] it was 100%; with Echinochloa crus-galli [15] it was 90%. Moreover, the “Herbicidal rate, southern crabgrass” value in the assay with southern crabgrass [4] was determined as 90%; with southern crabgrass [16], 80%. The “Herbicidal rate, Lindernia pyxidaria” value in the assay with Lindernia pyxidaria [5] is listed as 80%; with Lindernia pyxidaria [9], 100%. Moreover, the “Herbicidal rate, Scirpus juncoides” value with Scirpus juncoides [6] and with Scirpus juncoides [10] was 90% each time. For the same compound, the “Herbicidal rate, Monochoria vaginalis” value in the assay with Monochoria vaginalis [7] is 80%; with Monochoria vaginalis [11], 100%.
